Test results reported in patent US20250353891A1 (MEDIMMUNE LIMITED, priority 2022, published 2025).
Starred links: 1 amine or outer side, 2 acyl side, 3 side chain; linkers in the order of their positions; H or OH if unused. Non-standard residues stand in square brackets, D forms with d. Residues, ends and D or L forms follow the SMILES beside them. Groups on a side chain read outwards from the residue. *: point of attachment. C20 diacid = O=C(O)CCCCCCCCCCCCCCCCCCC(=O)*; C18 diacid = O=C(O)CCCCCCCCCCCCCCCCC(=O)*; γGlu = O=C(O)[C@H](CCC(=O)[*:2])N[*:1]; αMeF = C[C@](N)(Cc1ccccc1)C(=O)O; AEEA = NCCOCCOCC(=O)O; Aib = CC(C)(N)C(=O)O

What was measured:
[1] = target: human GLP-1 receptor (hGLP-1R) (Homo sapiens, UniProt P43220); assay: cAMP production (HTRF) in CHO cells expressing hGLP-1R; assay type: cell-based; parameters: expressed in transfected cells; conditions: for EC50: Table 6, peptides modified at position 17, cAMP in CHO hGLP-1R cells, geometric mean, read-out: hGLP-1R EC50; for % Relative Potency Ratio: Table 6, % GLP-1R activity relative to GLP-1 / % GlucR activity relative to glucagon
Chain of human GLP-1 receptor (hGLP-1R) (P43220 24-463): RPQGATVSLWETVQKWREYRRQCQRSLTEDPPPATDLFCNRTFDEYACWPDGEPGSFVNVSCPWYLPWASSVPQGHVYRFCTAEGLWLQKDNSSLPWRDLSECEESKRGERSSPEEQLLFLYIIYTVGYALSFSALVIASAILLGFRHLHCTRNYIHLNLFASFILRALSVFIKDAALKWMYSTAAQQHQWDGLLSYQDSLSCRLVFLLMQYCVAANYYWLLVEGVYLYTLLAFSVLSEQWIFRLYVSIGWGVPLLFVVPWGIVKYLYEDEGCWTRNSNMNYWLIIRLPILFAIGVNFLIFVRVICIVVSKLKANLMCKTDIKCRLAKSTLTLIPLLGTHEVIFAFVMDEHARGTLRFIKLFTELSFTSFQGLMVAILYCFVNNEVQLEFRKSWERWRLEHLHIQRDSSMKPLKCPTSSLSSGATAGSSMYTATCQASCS
In short: (§1)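 Potency values represent EC50 from 4-parameter logistic curves of HTRF % Delta F signal. Receptor-expressing CHO cells (hGCGR 2×10^5 cells/mL, hGLP-1R 1×10^5 cells/mL) were exposed for 30 min at room temperature before two-step cAMP detection.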

[2] = target: human glucagon receptor (hGCGR) (Homo sapiens, UniProt P47871); assay: cAMP production (HTRF) in CHO cells expressing hGCGR; assay type: cell-based; parameters: expressed in transfected cells; conditions: Table 6, peptides modified at position 17; cAMP in CHO hGCGR cells; geometric mean; read-out: hGluc-R EC50
Chain of human glucagon receptor (hGCGR) (P47871 26-477): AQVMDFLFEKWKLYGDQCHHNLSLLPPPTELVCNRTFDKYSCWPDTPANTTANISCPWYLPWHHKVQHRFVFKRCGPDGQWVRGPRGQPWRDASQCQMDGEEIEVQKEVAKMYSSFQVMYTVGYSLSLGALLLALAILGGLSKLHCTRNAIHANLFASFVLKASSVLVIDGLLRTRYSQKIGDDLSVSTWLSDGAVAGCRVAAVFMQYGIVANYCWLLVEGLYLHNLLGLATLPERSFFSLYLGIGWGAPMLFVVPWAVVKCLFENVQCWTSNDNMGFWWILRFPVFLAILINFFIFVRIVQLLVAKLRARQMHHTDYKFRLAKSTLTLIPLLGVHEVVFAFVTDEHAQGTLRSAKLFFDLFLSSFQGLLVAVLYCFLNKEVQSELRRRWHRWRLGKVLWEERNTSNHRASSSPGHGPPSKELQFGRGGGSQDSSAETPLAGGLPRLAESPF
In short: as §1

SMILES	EC50 [1] [nM]	% Relative Potency Ratio [1]	EC50 [2] [nM]
CC(C)C[C@H](NC(=O)[C@H](Cc1c[nH]c2ccccc12)NC(=O)[C@H](CCCNC(=N)N)NC(=O)[C@@H](NC(=O)[C@H](Cc1ccccc1)NC(=O)[C@H](CC(=O)O)NC(=O)[C@H](CCCNC(=N)N)NC(=O)[C@H](C)NC(=O)[C@H](CCCNC(=N)N)NC(=O)[C@H](CCCCNC(=O)COCCOCCNC(=O)COCCOCCNC(=O)CC[C@H](NC(=O)CCCCCCCCCCCCCCCCCCC(=O)O)C(=O)O)NC(=O)[C@@H](NC(=O)[C@H](CC(=O)O)NC(=O)[C@H](CC(C)C)NC(=O)[C@](C)(Cc1ccccc1)NC(=O)[C@H](CCCCN)NC(=O)[C@H](CO)NC(=O)[C@@H](NC(=O)[C@H](CC(=O)O)NC(=O)[C@H](CO)NC(=O)[C@@H](NC(=O)[C@H](Cc1ccccc1)NC(=O)[C@@H](NC(=O)CNC(=O)[C@H](CCC(N)=O)NC(=O)C(C)(C)NC(=O)[C@@H](N)Cc1c[nH]cn1)[C@@H](C)O)[C@@H](C)O)C(C)C)[C@@H](C)O)C(C)C)C(=O)N[C@@H](CC(C)C)C(=O)NC(C)(C)C(=O)N[C@H](C(=O)N[C@@H](CCC(=O)O)C(=O)O)[C@@H](C)O [Peptide 492] (H-H[Aib]QGTFTSDVSK[αMeF]LDTK([AEEA-AEEA-γGlu-C20 diacid])RARDFVRWLL[Aib]TE-OH; N-terminus assumed)	0.212	3.5	0.374
CC(C)C[C@H](NC(=O)[C@H](Cc1c[nH]c2ccccc12)NC(=O)[C@H](CCCNC(=N)N)NC(=O)[C@@H](NC(=O)[C@H](Cc1ccccc1)NC(=O)[C@H](CC(=O)O)NC(=O)[C@H](CCC(N)=O)NC(=O)[C@H](C)NC(=O)[C@H](CCCNC(=N)N)NC(=O)[C@H](CCCCNC(=O)COCCOCCNC(=O)COCCOCCNC(=O)CC[C@H](NC(=O)CCCCCCCCCCCCCCCCC(=O)O)C(=O)O)NC(=O)[C@@H](NC(=O)[C@H](CC(=O)O)NC(=O)[C@H](CC(C)C)NC(=O)[C@](C)(Cc1ccccc1)NC(=O)[C@H](CCCCN)NC(=O)[C@H](CO)NC(=O)[C@@H](NC(=O)[C@H](CC(=O)O)NC(=O)[C@H](CO)NC(=O)[C@@H](NC(=O)[C@H](Cc1ccccc1)NC(=O)[C@@H](NC(=O)CNC(=O)[C@H](CCC(N)=O)NC(=O)C(C)(C)NC(=O)[C@@H](N)Cc1c[nH]cn1)[C@@H](C)O)[C@@H](C)O)C(C)C)[C@@H](C)O)C(C)C)C(=O)N[C@@H](CC(C)C)C(=O)N[C@@H](CCCNC(=N)N)C(=O)NC(C)(C)C(=O)N[C@@H](CCCCN)C(=O)O [Peptide 493] (H-H[Aib]QGTFTSDVSK[αMeF]LDTK([AEEA-AEEA-γGlu-C18 diacid])RAQDFVRWLLR[Aib]K-OH; N-terminus assumed)	0.0235	14.0	0.166
CC(C)C[C@H](NC(=O)[C@H](Cc1c[nH]c2ccccc12)NC(=O)[C@H](CCCNC(=N)N)NC(=O)[C@@H](NC(=O)[C@H](Cc1ccccc1)NC(=O)[C@H](CC(=O)O)NC(=O)[C@H](CCC(N)=O)NC(=O)[C@H](C)NC(=O)[C@H](CCCNC(=N)N)NC(=O)[C@H](CCCCNC(=O)COCCOCCNC(=O)COCCOCCNC(=O)CC[C@H](NC(=O)CCCCCCCCCCCCCCCCCCC(=O)O)C(=O)O)NC(=O)[C@@H](NC(=O)[C@H](CC(=O)O)NC(=O)[C@H](CC(C)C)NC(=O)[C@](C)(Cc1ccccc1)NC(=O)[C@H](CCCCN)NC(=O)[C@H](CO)NC(=O)[C@@H](NC(=O)[C@H](CC(=O)O)NC(=O)[C@H](CO)NC(=O)[C@@H](NC(=O)[C@H](Cc1ccccc1)NC(=O)[C@@H](NC(=O)CNC(=O)[C@H](CCC(N)=O)NC(=O)C(C)(C)NC(=O)[C@@H](N)Cc1c[nH]cn1)[C@@H](C)O)[C@@H](C)O)C(C)C)[C@@H](C)O)C(C)C)C(=O)N[C@@H](CC(C)C)C(=O)N[C@@H](CCCNC(=N)N)C(=O)NC(C)(C)C(=O)N[C@@H](CCCCN)C(=O)O [Peptide 494]	0.0987	4.3	0.212
CC(C)C[C@H](NC(=O)[C@H](Cc1c[nH]c2ccccc12)NC(=O)[C@H](CCCNC(=N)N)NC(=O)[C@@H](NC(=O)[C@H](Cc1ccccc1)NC(=O)[C@H](CC(=O)O)NC(=O)[C@H](CCC(N)=O)NC(=O)[C@H](C)NC(=O)[C@H](CCCNC(=N)N)NC(=O)[C@H](CCCCNC(=O)COCCOCCNC(=O)COCCOCCNC(=O)CC[C@H](NC(=O)CCCCCCCCCCCCCCCCC(=O)O)C(=O)O)NC(=O)[C@@H](NC(=O)[C@H](CC(=O)O)NC(=O)[C@H](CC(C)C)NC(=O)[C@](C)(Cc1ccccc1)NC(=O)[C@H](CCCCN)NC(=O)[C@H](CO)NC(=O)[C@@H](NC(=O)[C@H](CC(=O)O)NC(=O)[C@H](CO)NC(=O)[C@@H](NC(=O)[C@H](Cc1ccccc1)NC(=O)[C@@H](NC(=O)CNC(=O)[C@H](CCC(N)=O)NC(=O)C(C)(C)NC(=O)[C@@H](N)Cc1c[nH]cn1)[C@@H](C)O)[C@@H](C)O)C(C)C)[C@@H](C)O)C(C)C)C(=O)N[C@@H](CC(C)C)C(=O)N[C@@H](CCCNC(=N)N)C(=O)NC(C)(C)C(=O)N[C@@H](CCCCN)C(N)=O [Peptide 495] (H-H[Aib]QGTFTSDVSK[αMeF]LDTK([AEEA-AEEA-γGlu-C18 diacid])RAQDFVRWLLR[Aib]K-NH2; N-terminus assumed)	0.0232	32.4	0.38
CC(C)C[C@H](NC(=O)[C@H](Cc1c[nH]c2ccccc12)NC(=O)[C@H](CCCNC(=N)N)NC(=O)[C@@H](NC(=O)[C@H](Cc1ccccc1)NC(=O)[C@H](CC(=O)O)NC(=O)[C@H](CCC(N)=O)NC(=O)[C@H](C)NC(=O)[C@H](CCCNC(=N)N)NC(=O)[C@H](CCCCNC(=O)COCCOCCNC(=O)COCCOCCNC(=O)CC[C@H](NC(=O)CCCCCCCCCCCCCCCCCCC(=O)O)C(=O)O)NC(=O)[C@@H](NC(=O)[C@H](CC(=O)O)NC(=O)[C@H](CC(C)C)NC(=O)[C@](C)(Cc1ccccc1)NC(=O)[C@H](CCCCN)NC(=O)[C@H](CO)NC(=O)[C@@H](NC(=O)[C@H](CC(=O)O)NC(=O)[C@H](CO)NC(=O)[C@@H](NC(=O)[C@H](Cc1ccccc1)NC(=O)[C@@H](NC(=O)CNC(=O)[C@H](CCC(N)=O)NC(=O)C(C)(C)NC(=O)[C@@H](N)Cc1c[nH]cn1)[C@@H](C)O)[C@@H](C)O)C(C)C)[C@@H](C)O)C(C)C)C(=O)N[C@@H](CC(C)C)C(=O)N[C@@H](CCCNC(=N)N)C(=O)NC(C)(C)C(=O)N[C@@H](CCCCN)C(N)=O [Peptide 496] (H-H[Aib]QGTFTSDVSK[αMeF]LDTK([AEEA-AEEA-γGlu-C20 diacid])RAQDFVRWLLR[Aib]K-NH2; N-terminus assumed)	0.0649	14.7	0.482
CC(C)C[C@H](NC(=O)[C@H](Cc1c[nH]c2ccccc12)NC(=O)[C@H](CCCNC(=N)N)NC(=O)[C@@H](NC(=O)[C@H](Cc1ccccc1)NC(=O)[C@H](CC(=O)O)NC(=O)[C@H](CCC(N)=O)NC(=O)[C@H](C)NC(=O)[C@H](CCCNC(=N)N)NC(=O)[C@H](CCCCNC(=O)COCCOCCNC(=O)COCCOCCNC(=O)CC[C@H](NC(=O)CCCCCCCCCCCCCCCCC(=O)O)C(=O)O)NC(=O)[C@@H](NC(=O)[C@H](CC(=O)O)NC(=O)[C@H](CC(C)C)NC(=O)[C@](C)(Cc1ccccc1)NC(=O)[C@H](CCCCN)NC(=O)[C@H](CO)NC(=O)[C@@H](NC(=O)[C@H](CC(=O)O)NC(=O)[C@H](CO)NC(=O)[C@@H](NC(=O)[C@H](Cc1ccccc1)NC(=O)[C@@H](NC(=O)CNC(=O)[C@H](CCC(N)=O)NC(=O)C(C)(C)NC(=O)[C@@H](N)Cc1c[nH]cn1)[C@@H](C)O)[C@@H](C)O)C(C)C)[C@@H](C)O)C(C)C)C(=O)N[C@@H](CC(C)C)C(=O)N[C@@H](CCCNC(=N)N)C(=O)NC(C)(C)C(=O)N[C@@H](C)C(=O)O [Peptide 497] (H-H[Aib]QGTFTSDVSK[αMeF]LDTK([AEEA-AEEA-γGlu-C18 diacid])RAQDFVRWLLR[Aib]A-OH)	0.0374	6.3	0.118
CC(C)C[C@H](NC(=O)[C@H](Cc1c[nH]c2ccccc12)NC(=O)[C@H](CCCNC(=N)N)NC(=O)[C@@H](NC(=O)[C@H](Cc1ccccc1)NC(=O)[C@H](CC(=O)O)NC(=O)[C@H](CCC(N)=O)NC(=O)[C@H](C)NC(=O)[C@H](CCCNC(=N)N)NC(=O)[C@H](CCCCNC(=O)COCCOCCNC(=O)COCCOCCNC(=O)CC[C@H](NC(=O)CCCCCCCCCCCCCCCCCCC(=O)O)C(=O)O)NC(=O)[C@@H](NC(=O)[C@H](CC(=O)O)NC(=O)[C@H](CC(C)C)NC(=O)[C@](C)(Cc1ccccc1)NC(=O)[C@H](CCCCN)NC(=O)[C@H](CO)NC(=O)[C@@H](NC(=O)[C@H](CC(=O)O)NC(=O)[C@H](CO)NC(=O)[C@@H](NC(=O)[C@H](Cc1ccccc1)NC(=O)[C@@H](NC(=O)CNC(=O)[C@H](CCC(N)=O)NC(=O)C(C)(C)NC(=O)[C@@H](N)Cc1c[nH]cn1)[C@@H](C)O)[C@@H](C)O)C(C)C)[C@@H](C)O)C(C)C)C(=O)N[C@@H](CC(C)C)C(=O)N[C@@H](CCCNC(=N)N)C(=O)NC(C)(C)C(=O)N[C@@H](C)C(=O)O [Peptide 498] (H-H[Aib]QGTFTSDVSK[αMeF]LDTK([AEEA-AEEA-γGlu-C20 diacid])RAQDFVRWLLR[Aib]A-OH; N-terminus assumed)	0.156	2.1	0.17
